In patent US9018214B2, “Bicyclic heterocycle compounds and their uses in therapy” (Astex Therapeutics Limited, priority 2011, dated 2015):
Structures can show the parent of a compound that is named as a salt. Where two headings read alike, the source gives them in different places.

What was measured:
[1] = test system: EVSA-T (human breast carcinoma); test: Anti-proliferative activity, Alamar Blue assay, EVSA-T; type: cell-based; settings: Homo sapiens, EVSA-T; for EC50: 72 h
[2] = target: BIR3 domain of human cIAP-1 (residues 267-363) (Homo sapiens (Human), UniProt Q13490); test: cIAP-1 in vitro competitive displacement binding assay (fluorescence polarization; Probe A AVPIK(5&6FAM)-amide or Probe B AbuRPFK(5&6FAM)-amide)
[3] = read-out: EC50, inhibition of cell growth
[4] = Probe A AVPIK(5&6FAM)-amide, read-out: IC50 or PI cIAP1: IC50
[5] = Probe B AbuRPFK(5&6FAM)-amide, read-out: IC50 or PI cIAP1: IC50

| SMILES | EC50 ([1]; read-out: EVSA-T prolif (EC50)) | IC50 [2, 5] | further results |
| --- | --- | --- | --- |
| C[C@@H]1CN(CC(=O)N2CCc3ccc(Cc4ccccc4)cc32)CCN1 [Example 29, 1-(6-Benzyl-2,3-dihydro-indol-1-yl)-2-((R)-3-methyl-piperazin-1-yl)-ethanone hydrochloride salt] | 4600 nM | – | EC50 [1, 3]: < 10000 nM; IC50 [2]: < 10000 nM; IC50 [2, 4]: 1400 nM |
| C[C@@H]1CN(CC(=O)N2CCc3cnc(Cc4ccccc4)cc32)CCN1 [Example 35, 1-(6-Benzyl-2,3-dihydro-pyrrolo[3,2-c]pyridin-1-yl)-2-((R)-3-methyl-piperazin-1-yl)-ethanone hydrochloride salt] | – | – | inhibition at 10 µM ([1]; read-out: EVSA-T prolif: % inhibition): 28%; IC50 [2]: < 1000 nM; IC50 [2, 4]: 960 nM |
| COC[C@H]1CN[C@H](C)CN1CC(=O)N1CC(C)(C)c2cnc(Cc3cccc(C#N)c3)cc21 [Example 80, 3-[(1-{2-[(2R,5R)-2-(Methoxymethyl)-5-methylpiperazin-1-yl]acetyl}-3,3-dimethyl-1H,2H,3H-pyrrolo[3,2-c]pyridin-6-yl)methyl]benzonitrile hydrochloride salt] | 780 nM | 33 nM | – |
| COC[C@H]1CN[C@H](C)CN1CC(=O)N1CC(C)(C)c2cnc(Cc3cccc(OC)c3)cc21 [Example 89, 2-[(2R,5R)-2-(Methoxymethyl)-5-methylpiperazin-1-yl]-1-{6-[(3-methoxyphenyl)methyl]-3,3-dimethyl-1H,2H,3H-pyrrolo[3,2-c]pyridin-1-yl}ethan-1-one, hydrochloride salt] | 990 nM | 16 nM | – |
| C[C@@H]1CN(CC(=O)N2CC(C)(C)c3cnc(Cc4ccccc4)cc32)[C@@H](C(=O)N(C)C)CN1 [Example 99, (2R,5R)-1-(2-{6-Benzyl-3,3-dimethyl-1H,2H,3H-pyrrolo[3,2-c]pyridin-1-yl}-2-oxoethyl)-N,N,5-trimethylpiperazine-2-carboxamide, hydrochloride salt] | 180 nM | 12 nM | – |
| C[C@@H]1CN(CC(=O)N2CC(C)(COCc3ccccc3)c3cnc(Cc4ccccc4)cc32)[C@@H](C(=O)N(C)C)CN1 (stereo partly drawn) [Example 104, (2R,5R)-1-(2-{6-Benzyl-3-[(benzyloxy)methyl]-3-methyl-1H,2H,3H-pyrrolo[3,2-c]pyridin-1-yl}-2-oxoethyl)-N,N,5-trimethylpiperazine-2-carboxamide, hydrochloride salt] | 490 nM | – | inhibition at 0.01 µM ([2]; 3 h, Probe B, @ 0.01 μM, read-out: IC50 or PI cIAP1: PI): 71% |
| COC[C@H]1CN[C@H](C)CN1CC(=O)N1CC(C)(C)c2cc(-c3nc(C)no3)c(Cl)cc21 [Example 141, 1-[6-Chloro-3,3-dimethyl-5-(3-methyl-1,2,4-oxadiazol-5-yl)-2,3-dihydro-1H-indol-1-yl]-2-[(2R,5R)-2-(methoxymethyl)-5-methylpiperazin-1-yl]ethan-1-one] | 9000 nM | 280 nM | EC50 [1, 3]: < 10000 nM |
| CCCC(F)(F)c1cnc2c(c1)N(C(=O)CN1C[C@@H](C)NC[C@@H]1CN1CCCC1=O)CC2(C)C [Example 217, 1-{[(2R,5R)-1-{2-[6-(1,1-Difluorobutyl)-3,3-dimethyl-1H,2H,3H-pyrrolo[3,2-b]pyridin-1-yl]-2-oxoethyl}-5-methylpiperazin-2-yl]methyl}pyrrolidin-2-one hydrochloride] | 50 nM | – | – |
| C[C@@H]1CN(CC(=O)N2CC(C)(C)c3cnc(Cc4ccc(F)cc4F)cc32)[C@@H](CN2CCCC2)CN1 [Example 220, 1-{6-[(2,4-Difluorophenyl)methyl]-3,3-dimethyl-1H,2H,3H-pyrrolo[3,2-c]pyridin-1-yl}-2-[(2R,5R)-5-methyl-2-(pyrrolidin-1-ylmethyl)piperazin-1-yl]ethan-1-one dihydrochloride] | 49 nM | – | – |
| CC(C)CC(F)(F)c1cnc2c(c1)N(C(=O)CN1C[C@@H](C)NC[C@@H]1CN1CCOCC1)CC2(C)C [Example 235, 1-[6-(1,1-Difluoro-3-methylbutyl)-3,3-dimethyl-1H,2H,3H-pyrrolo[3,2-b]pyridin-1-yl]-2-[(2R,5R)-5-methyl-2-(morpholin-4-ylmethyl)piperazin-1-yl]ethan-1-one] | 31 nM | – | – |
